Measured values taken from patent US12433953B2, “Compositions and methods related to tumor activated antibodies targeting EGFR and effector cell antigens” (Janux Therapeutics, Inc., priority 2021, dated 2025).
Where two headings read alike, the source gives them in different places.

Key:
EGFR IgG = experiment: ELISA binding of peptides to EGFR IgG; settings: Table 12; antibody concentration for half maximal signal; read-out: EC50 for peptide binding to EGFR IgG
[1] = target: EGFR IgG binding to the EGFR antigen; experiment: ELISA competitive inhibition of EGFR IgG binding to EGFR antigen; settings: for IC50: read-out: IC50 for peptide inhibition of EGFR IgG binding to EGFR antigen, Table 13
EGFR Fab = experiment: ELISA binding of peptides to EGFR Fab; settings: for EC50: read-out: EC50 for peptide binding to αEGFR Fab; for binding affinity for EGFR Fab (in words): among peptides of Table 14
[2] = target: EGFR Fab binding to the EGFR antigen; experiment: ELISA competitive inhibition of EGFR Fab binding to EGFR antigen; settings: for IC50: read-out: IC50 for peptide inhibition of αEGFR Fab binding to EGFR antigen

SMILES | EC50 (EGFR IgG) | IC50 [1] | IC50 ([2]; Table 17) | EC50 (EGFR Fab; Table 15) | also measured
CSCC[C@H](N)C(=O)N[C@@H](CC(N)=O)C(=O)N[C@H]1CSSC[C@@H](C(=O)N[C@@H](CC(C)C)C(=O)N[C@H](C(=O)O)C(C)C)NC(=O)[C@H](Cc2ccc(O)cc2)NC(=O)[C@H](CCC(=O)O)NC(=O)[C@H](C(C)C)NC(=O)[C@H](Cc2c[nH]c3ccccc23)NC(=O)[C@H](CC(C)C)NC(=O)[C@H](CCCNC(=N)N)NC(=O)[C@H](CC(N)=O)NC(=O)[C@H](CC(C)C)NC1=O [Peptide-5] | 0.002 µM | > 0.3 µM |  |  | 
CSCC[C@@H]1NC(=O)[C@H](Cc2c[nH]cn2)NC(=O)[C@H](CO)NC(=O)CNC(=O)[C@H](CC(=O)O)NC(=O)[C@H](Cc2c[nH]cn2)NC(=O)[C@@H](NC(=O)[C@H](CO)NC(=O)[C@@H](NC(=O)[C@@H](N)Cc2c[nH]c3ccccc23)C(C)C)CSSC[C@@H](C(=O)N[C@@H](Cc2ccccc2)C(=O)N[C@@H](Cc2c[nH]cn2)C(=O)O)NC(=O)[C@H]([C@@H](C)O)NC1=O [Peptide-4] |  | > 0.3 µM |  |  | 
CC(C)[C@@H]1NC(=O)[C@H](CCCNC(=N)N)NC(=O)[C@H](CC(=O)O)NC(=O)[C@H](Cc2c[nH]c3ccccc23)NC(=O)[C@H](CCC(N)=O)NC(=O)[C@@H](NC(=O)[C@@H](N)CC(N)=O)CSSC[C@@H](C(=O)N[C@@H](CO)C(=O)O)NC(=O)[C@H](C)NC(=O)[C@H](Cc2ccc(O)cc2)NC(=O)[C@H]([C@@H](C)O)NC(=O)[C@H](Cc2c[nH]cn2)NC(=O)[C@H](CCC(=O)O)NC1=O [Peptide-3] | 0.413 µM | > 0.3 µM |  |  | 
CC(C)[C@@H]1NC(=O)[C@H](Cc2c[nH]c3ccccc23)NC(=O)[C@H]([C@@H](C)O)NC(=O)[C@H](CC(N)=O)NC(=O)[C@H](CC(=O)O)NC(=O)[C@H](CCC(N)=O)NC(=O)CNC(=O)[C@@H](NC(=O)[C@@H](N)Cc2ccc(O)cc2)CSSC[C@@H](C(=O)N[C@@H](Cc2ccccc2)C(=O)O)NC(=O)CNC(=O)[C@H](CCC(=O)O)NC(=O)[C@H](CCCNC(=N)N)NC1=O [Peptide-6] | 0.0003 µM |  |  |  | inhibiting EGFR IgG binding to the EGFR antigen (in words) ([1]; among peptide-1 to peptide-6): most effective at inhibiting EGFR IgG binding to the EGFR antigen; EC50 (EGFR Fab; Table 16): 0.458 µM
CSCC[C@@H]1NC(=O)[C@H](CC(C)C)NC(=O)[C@H](CO)NC(=O)[C@H](CCCNC(=N)N)NC(=O)[C@@H](NC(=O)[C@H](Cc2c[nH]c3ccccc23)NC(=O)[C@@H](N)CC(=O)O)CSSC[C@@H](C(=O)N2CCC[C@H]2C(=O)O)NC(=O)[C@H](CC(C)C)NC(=O)[C@H](CC(=O)O)NC(=O)[C@H]([C@@H](C)O)NC(=O)[C@H](Cc2ccc(O)cc2)NC(=O)[C@H](CO)NC1=O [Peptide-1] | 0.052 µM | > 0.3 µM |  |  | 
CC(C)C[C@@H]1NC(=O)[C@H](CCC(N)=O)NC(=O)CNC(=O)[C@H](CCCNC(=N)N)NC(=O)[C@H](CCC(N)=O)NC(=O)[C@H](Cc2c[nH]c3ccccc23)NC(=O)[C@H](C(C)C)NC(=O)[C@H](CO)NC(=O)[C@H](CC(N)=O)NC(=O)[C@@H](NC(=O)[C@@H](N)Cc2ccc(O)cc2)CSSC[C@@H](C(=O)O)NC(=O)[C@H](Cc2c[nH]c3ccccc23)NC(=O)[C@H](Cc2ccc(O)cc2)NC1=O [Peptide-15] |  |  |  |  | IC50 ([2]; Table 18): > 0.3 µM; binding affinity for EGFR Fab (in words) (EGFR Fab): strongest binding affinities (lowest EC50s); EC50 (EGFR Fab; Table 16): 0.007 µM
CC[C@H](C)[C@@H]1NC(=O)[C@@H]2CCCN2C(=O)[C@H](CCCCN)NC(=O)[C@H](C)NC(=O)[C@@H]2CCCN2C(=O)[C@H](CC(=O)O)NC(=O)[C@H](CC(N)=O)NC(=O)[C@H](Cc2c[nH]cn2)NC(=O)[C@H](CO)NC(=O)[C@H](CC(C)C)NC(=O)[C@@H](NC(=O)[C@@H]2CCCN2)CSSC[C@@H](C(=O)N[C@@H](C)C(=O)O)NC1=O [Peptide-41] |  |  |  |  | IC50 ([2]; Table 27, peptide-8 optimization): 4.25 µM; EC50 (EGFR Fab; Table 25, peptide-8 optimization): 0.292 µM
CSCC[C@@H]1NC(=O)[C@H](CCCNC(=N)N)NC(=O)[C@H](C(C)C)NC(=O)[C@H](CCSC)NC(=O)[C@H](CCCNC(=N)N)NC(=O)[C@H](Cc2c[nH]cn2)NC(=O)[C@H](CC(C)C)NC(=O)CNC(=O)[C@H](CC(=O)O)NC(=O)CNC(=O)[C@@H](NC(=O)CN)CSSC[C@@H](C(=O)O)NC(=O)[C@H](Cc2c[nH]c3ccccc23)NC1=O [Peptide-12] |  |  | > 0.3 µM | > 1 µM | 
CSCC[C@@H]1NC(=O)[C@H](C(C)C)NC(=O)[C@H](Cc2c[nH]c3ccccc23)NC(=O)[C@H](Cc2c[nH]cn2)NC(=O)[C@H](C)NC(=O)[C@@H](NC(=O)CNC(=O)CN)CSSC[C@@H](C(=O)N[C@@H](CCC(N)=O)C(=O)O)NC(=O)[C@H](Cc2c[nH]c3ccccc23)NC(=O)[C@H](CO)NC(=O)[C@H](CC(C)C)NC(=O)[C@H](CCCNC(=N)N)NC1=O [Peptide-10] |  |  | > 0.3 µM | > 1 µM | 
CSCC[C@@H]1NC(=O)[C@H](Cc2c[nH]c3ccccc23)NC(=O)[C@H](Cc2ccc(O)cc2)NC(=O)[C@H](Cc2c[nH]cn2)NC(=O)[C@H](C(C)C)NC(=O)[C@@H](NC(=O)[C@@H](NC(=O)[C@@H](N)CO)[C@@H](C)O)CSSC[C@@H](C(=O)N[C@H](C(=O)O)C(C)C)NC(=O)[C@H](CO)NC(=O)[C@H](CCCNC(=N)N)NC(=O)[C@H](CC(C)C)NC(=O)[C@H](CCC(N)=O)NC1=O [Peptide-9] |  |  | > 0.3 µM | > 1 µM | 
CC[C@H](C)[C@@H]1NC(=O)[C@H](CC(C)C)NC(=O)[C@H](Cc2c[nH]cn2)NC(=O)[C@H](C)NC(=O)[C@H](CC(=O)O)NC(=O)[C@H](C)NC(=O)[C@@H](NC(=O)[C@H](CO)NC(=O)[C@@H](N)[C@@H](C)O)CSSC[C@@H](C(=O)N[C@@H](CO)C(=O)O)NC(=O)[C@H](CO)NC(=O)[C@@H]2CCCN2C(=O)[C@H](C)NC1=O [Peptide-2] | 0.084 µM | > 0.3 µM |  |  | 
CSCC[C@@H]1NC(=O)[C@H](CC(C)C)NC(=O)[C@H](Cc2ccccc2)NC(=O)[C@H](Cc2c[nH]cn2)NC(=O)[C@H](CCC(N)=O)NC(=O)[C@@H](NC(=O)CNC(=O)[C@@H](N)CC(C)C)CSSC[C@@H](C(=O)NCC(=O)O)NC(=O)[C@H]([C@@H](C)O)NC(=O)[C@H](C)NC(=O)[C@H](CC(C)C)NC(=O)[C@H](CCCCN)NC1=O [Peptide-11] |  |  | > 0.3 µM | 0.042 µM | 
CC[C@H](C)[C@@H]1NC(=O)[C@H](Cc2c[nH]cn2)NC(=O)[C@H](CO)NC(=O)[C@H](CCCNC(=N)N)NC(=O)[C@@H](NC(=O)[C@@H]2CCCN2)CSSC[C@@H](C(=O)N[C@H](C(=O)O)C(C)C)NC(=O)[C@H]([C@@H](C)CC)NC(=O)[C@@H]2CCCN2C(=O)[C@H](CCCCN)NC(=O)[C@H](C)NC(=O)[C@H](C(C)C)NC(=O)[C@H](CC(=O)O)NC1=O [Peptide-8] |  |  |  | 0.008 µM | inhibiting EGFR Fab binding to the EGFR antigen (in words) ([2]; among peptides of Table 14): most effective at inhibiting EGFR Fab binding to the EGFR antigen; binding affinity for EGFR Fab (in words) (EGFR Fab): strongest binding affinities (lowest EC50s); EC50 (EGFR Fab; Table 24, peptide-8 optimization): 0.7 µM
